Source: patent US20030187056A1, “Live cell procedures to identify to identify compounds modulating intracellular distribution of phosphodiesterase( pde) enzymes” (priority 2000, published 2003)
pIC50: −log10 of the molar value. Several values for one entry are separate records, joined by “and”; a condition that tells them apart may be missing. Equal entries are not always repeated. Entries after “also recorded” stand apart in the source; their conditions may differ. Where two headings read alike, the source gives them in different places.

How the values were obtained:
[1] = target: T1, HSPDE4A4-EGFP (Homo sapiens, UniProt P27815); experiment: Dispersal of preformed Rolipram-induced spots, HSPDE4A4-EGFP CHO cells; assay type: cell-based; details: for Removal of Rolipram-induced PDE4A4-spots: yes/no
T1 construct: expressed in transfected cells
Procedure: For the microscopic assessment of spot dispersal, stably transfected (non-clonal) cells transfected with the HSPDE4A4-EGFP probe are allowed to adhere to chambered coverglasses in HAM's F12 medium containing 10% FBS. […] Chambered coverglasses are then transferred to a Zeiss 135 inverted microscope for time lapse imaging as described in Example 2, above. At a given point after starting an experiment, a mixture of IBMX and forskolin is added to give final concentrations of 1 mM and 50 μM, respectively. Images are captured at regular intervals to form a time lapse sequence of the response, also as described in Example 2.
The plate is then run in the FLIPR system at 37° C., with addition of IBMX and forskolin to all wells at final concentrations of 500 μM and 50 μM respectively after the first minute. The experiment is continued for a further 45 minutes, readings being taken at intervals of 1 minute.
Non-clonal CHO cells stably transfected with the HSPDE4A4-EGFP probe are allowed to adhere to chambered coverglasses in HAM's F12 medium containing 10% FBS and to grow for 24 hours.
Clonal CHO cells stably transfected with the HSPDE4A4-EGFP probe are allowed to adhere to chambered coverglasses in HAM's F12 medium containing 10% FBS and to grow for 5 days without change of medium, which by this time is serum-depleted.
Individual wells are then treated with either 50 μM forskolin plus 500 μM IBMX or 200 nM PMA plus 2 μM ionomycin.

[2] = target: T2, HSPDE4A1-EGFP (Homo sapiens, UniProt P27815); experiment: Spot dispersal in CHO cells transfected with HSPDE4A1-EGFP; assay type: cell-based; details: for Removal of PDE4A1 spots: yes/no; for dispersal of PDE4A1 spots (in words): Rolipram 2 micromolar 2 hours, others over the ranges tested
T2 construct: the ca. 1.95 kb coding region of HSPDE4A1 (GenBank Acc.no. U97584) is amplified; expressed in transfected cells
Procedure: (§1) […] The cells are then fixed with 4% formalin buffer (pH7) for 1 hour, washed with PBS and stained with 1 μM Hoechst 33258 in PBS for 10 minutes at 25° C., then washed twice in PBS. Automated images are collected and analysed for the number of spots per cell as described in Example 2.
as §1

[3] = target: T1, HSPDE4A4-EGFP; experiment: Spot formation in CHO cells transfected with HSPDE4A4-EGFP; assay type: cell-based; details: for cells with spots: 10 μM denbufylline, 24.5 hours; for Formation of PDE4A4 spots: yes/no; for formation of spots, compound alone (in words): observed up to 24 hours
Procedure: Chinese hamster ovary cells (CHO), are transfected with the plasmids described in Example 1 above using the transfection agent FuGENE™ 6 (Boehringer Mannheim Corp, USA) according to the method recommended by the suppliers. Stable transfectants are selected using 1 mg/ml G418 sulphate (Calbiochem) in the growth medium (HAM's F12 nutrient mix with Glutamax-1, 10% foetal bovine serum (FBS), 100 μg penicillin-streptomycin mixture ml^−1 (GibcoBRL, supplied by Life Technologies, Denmark). Cell are cultured at 37° C. in 100% humidity and conditions of normal atmospheric gases supplemented with 5% CO2.
For fluorescence microscopy, cells are allowed to adhere to Lab-Tek chambered coverglasses (Nalge Nunc International, Naperville USA) for at least 24 hours and are then cultured to about 80% confluence. Cells can also be grown in plastic 96-well plates (Polyfiltronics Packard 96-View Plate or Costar Black Plate, clear bottom; both types tissue culture treated) for imaging purposes. Prior to experiments, the cells are cultured over night without G418 sulphate in HAM F-12 medium with glutamax, 100 μg penicillin-streptomycin mixture ml^−1 and 10% FBS. This medium has low autofluorescence enabling fluorescence microscopy of cells straight from the incubator. For certain tests requiring medium of defined composition, particularly with regard to the presence of specific cell growth factors, the HAM's culture medium is replaced prior to imaging with a buffered saline solution (KRW buffer) containing (in mM) 3.6 KCl, 140 NaCl, 2 NaHCO3, 0.5 NaH2PO4, 0.5 MgSO4, 1.5 CaCl2, 10 Hepes, 5 glucose, pH7.4.
Changes in cellular distribution of a transfected probe can be imaged and quantified in an automated fashion. For this purpose cells are cultured to near 80% to 90% confluence in coverglass chambers or plastic 96-well plates, given the relevant treatment and allowed to respond. At the end of the response period, cells are fixed in 4% formaldehyde buffer (Lillies fixative buffer, pH7.0: Bie and Berntsen A/S, Denmark) for 30 minutes to 2 hours, then washed in phosphate buffered saline (PBS, Life Technologies, Denmark). Nuclear DNA is stained with 1 μM Hoechst 33258 (Molecular Probes, Eugene, Oreg., USA) in PBS for 10 minutes at 25° C., then washed twice in PBS. Automated images are collected on a Nikon Diaphot 300 (Nikon, Japan) using a Nikon Plan Fluor 20X/0.5NA objective lens. The basic microscope is fitted with a motorised specimen stage and motorised focus control (Prior Scientific, Fulbourn, Cambridge UK), excitation filter wheel (Sutter Instruments, Novato Calif. USA) and Photometrics PXL series camera with a KAF1400 CCD chip (Photometrics, Tucson, Ariz. USA), each of these items being under the control of an Macintosh 7200/90 computer (Apple Computer, Cupertino, Calif. USA). Automation of stage positioning, focus, excitation filter selection, and image acquisition is performed using macros written in-house, running under IPLab Spectrum for Macintosh (Scanalytics, Fairfax, Va. USA). Fluorescence illumination comes from a 100 W HBO lamp. Images are collected in pairs, the first using a 340/10 nm excitation filter, the second with a 475RDF40 excitation filter (Chroma, Brattleboro, Vt.). Both images are collected via the same dichroic and emission filters, which are optimised for EGFP applications (XF100 filter set, Omega Optical, Brattleboro, Vt.). While the choice of filters for imaging the nuclear stain (Hoechst 33258) is not well matched to that dye's spectral properties, resulting in lower image intensity, it greatly improves the throughput of the procedure by allowing both images to be collected using the same dichroic and emission filter. This eliminates any image registration problems and focus shifts which would result from using two different filter sets, which would require more steps in the acquisition procedure and more extensive image processing to overcome.

[4] = test system: PDE4A probes; experiment: Redistribution of the PDE4A probes (summary); assay type: cell-based; details: for redistribution of the PDE4A probes: compound alone
[5] = target: T2, HSPDE4A1-EGFP; experiment: Competitive assay: reversal of Rolipram-induced spot dispersal, HSPDE4A1-EGFP CHO cells; assay type: cell-based; details: yes/no
[6] = human, in vivo; cited from earlier work
[7] = test system: PDE4; details: cited from earlier work; for IC50: Data from Souness and Rao, 1997, read-out: PDE4 inhibition (IC50: μM); for pIC50: literature values quoted in Example 5 (Saldou 1998; Ahluwalia 1982; Rubin 1991), read-out: IC50 against PDE4; for Inhibition of PDE4 catalytic activity: yes/no
[8] = test system: high affinity Rolipram binding site (HARBS); details: Data from Souness and Rao, 1997; cited from earlier work
[9] = target: T3, high affinity Rolipram binding site (HARBS); details: read-out: Displacement of [3H] Rolipram (i: μM); Data from Souness and Rao, 1997; cited from earlier work
T3 construct: Displacement of [3H]; Rolipram (i: μM); other: Data from Souness and Rao, 1997

[10] = test system: T4, PDE4; details: Saldou et al., 1998; read-out: IC50 against PDE4; cited from earlier work
T4 construct: other: Saldou et al., 1998; Such an enzyme preparation may be obtained from cells transfected with and expressing the PDE4 enzyme chosen

[11] = target: T1, HSPDE4A4-EGFP; experiment: Competitive spot assay: inhibition of Rolipram- or RS25344-induced spot formation, HSPDE4A4-EGFP CHO cells; assay type: cell-based
Procedure: (§2) The cells are then fixed with 4% formaldehyde buffer (pH7) for 1 hour, washed with PBS and stained with 1 μM Hoechst 33258 in PBS for 10 minutes at 25° C., then washed twice in PBS. Automated images are collected and analysed for the number of spots per cell as described in Example 2.
as §2

[12] = test system: HSPDE4A4-EGFP; experiment: Formation of small spots in serum-depleted Rolipram-treated HSPDE4A4-EGFP CHO cells; assay type: cell-based, Homo sapiens; details: 1 or 2 μM ionomycin, KRW buffer with 2 μM Rolipram
Procedure: Clonal CHO cells stably transfected with the HSPDE4A4-EGFP probe are allowed to adhere to chambered coverglasses in HAM's F12 medium containing 10% FBS and to grow for 4 days without change of medium. […] At the end of this time approximately 95% of the cells contain bright spots when viewed on a fluorescence microscope.
Individual wells are then treated first with 1 or 2 μM ionomycin, and then a short time later with 50 μM forskolin plus 500 μM IBMX. Within 1 minute of treatment with ionomycin, at either 1 or 2 μM, small spots form in the cytoplasm of the cells (FIGS. 32a and 32b). This occurs in nearly all cells, whether they contain large Rolipram-induced spots or not. Large spots are not affected in any way during the formation of the smaller spots. The small spots will spontaneously disappear within 10 to 20 minutes. Application of forskolin plus IBMX clears them within minutes (FIG. 33a). The larger spots also disperse in time with this treatment, but more slowly (FIG. 33b). The formation of small spots will not occur in serum-replete cells, or in starved cells that then have been given 10% serum for more than 45 minutes. […] The time course of transient appearance of the small spots of the HSPDE4A4-EGFP probe is consistent with that of the Ca^2+ transient generally elicited by ionomycin in treated cells.

[13] = test system: cAMP-dependent protein kinases (PKA); details: cited from earlier work
[14] = test system: PDE3; experiment: PDE3 inhibition (literature values, PDE3/PDE4 specificity); assay type: biochemical; details: measure of specificity
Excerpt: These compounds are termed specific to PDE4, since they inhibit other PDEs either weakly or not at all. The inverse ratio between IC50 of a compound to PDE4s versus its inhibition of other cAMP-degrading PDEs, such as PDE3s is often used as a measure of specificity.

[15] = test system: PDE3; details: cited from earlier work

T2 sequence (P27815 1-647 isoform P27815-4): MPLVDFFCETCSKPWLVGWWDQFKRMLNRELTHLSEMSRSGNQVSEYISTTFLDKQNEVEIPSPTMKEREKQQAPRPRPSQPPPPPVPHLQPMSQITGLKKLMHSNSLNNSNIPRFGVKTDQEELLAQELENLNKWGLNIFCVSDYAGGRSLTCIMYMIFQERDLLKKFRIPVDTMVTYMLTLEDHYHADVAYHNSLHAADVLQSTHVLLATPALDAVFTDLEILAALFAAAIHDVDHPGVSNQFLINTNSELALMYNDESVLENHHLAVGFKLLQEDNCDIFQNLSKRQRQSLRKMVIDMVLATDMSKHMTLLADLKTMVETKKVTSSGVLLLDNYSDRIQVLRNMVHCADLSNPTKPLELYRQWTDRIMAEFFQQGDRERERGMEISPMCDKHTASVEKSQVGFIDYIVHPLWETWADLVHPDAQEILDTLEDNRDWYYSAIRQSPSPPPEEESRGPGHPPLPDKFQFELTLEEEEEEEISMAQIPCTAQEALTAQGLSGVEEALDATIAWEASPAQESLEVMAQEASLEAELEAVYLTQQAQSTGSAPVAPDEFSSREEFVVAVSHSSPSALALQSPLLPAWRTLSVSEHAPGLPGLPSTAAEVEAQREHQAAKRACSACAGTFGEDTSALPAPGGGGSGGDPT
T1 sequence (P27815 whole entry): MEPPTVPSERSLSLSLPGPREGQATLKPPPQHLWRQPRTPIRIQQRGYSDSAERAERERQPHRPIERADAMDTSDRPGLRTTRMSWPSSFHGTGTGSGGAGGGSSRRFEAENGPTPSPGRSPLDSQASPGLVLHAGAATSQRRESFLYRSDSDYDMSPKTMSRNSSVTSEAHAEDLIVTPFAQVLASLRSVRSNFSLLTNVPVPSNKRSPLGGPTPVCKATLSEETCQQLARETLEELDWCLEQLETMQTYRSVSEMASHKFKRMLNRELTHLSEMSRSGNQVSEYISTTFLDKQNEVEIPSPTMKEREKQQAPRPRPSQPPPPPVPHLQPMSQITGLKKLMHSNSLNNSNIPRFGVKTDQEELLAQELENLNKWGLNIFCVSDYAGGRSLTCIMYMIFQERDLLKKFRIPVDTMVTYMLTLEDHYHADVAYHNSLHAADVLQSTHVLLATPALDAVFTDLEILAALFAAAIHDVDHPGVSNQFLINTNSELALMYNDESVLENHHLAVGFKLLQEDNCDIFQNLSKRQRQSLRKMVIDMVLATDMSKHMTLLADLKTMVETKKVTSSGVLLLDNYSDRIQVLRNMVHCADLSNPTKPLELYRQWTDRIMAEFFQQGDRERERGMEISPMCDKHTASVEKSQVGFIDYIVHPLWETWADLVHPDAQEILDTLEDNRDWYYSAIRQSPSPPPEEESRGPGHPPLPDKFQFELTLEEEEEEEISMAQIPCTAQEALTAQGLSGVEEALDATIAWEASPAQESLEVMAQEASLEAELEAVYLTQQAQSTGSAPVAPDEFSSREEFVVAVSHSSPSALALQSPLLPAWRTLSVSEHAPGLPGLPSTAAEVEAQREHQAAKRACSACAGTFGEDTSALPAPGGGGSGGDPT

| SMILES | Removal of Rolipram-induced PDE4A4-spots [1] | Removal of PDE4A1 spots [2] | Formation of PDE4A4 spots [3] | redistribution of the PDE4A probes [4] | Reversal of Rolipram-induced removal of PDE4A1 spots [5] | Clinical effect [6] | Emesis [6] | IC50 [7] | pIC50 [7] | Inhibition of PDE4 catalytic activity [7] | PDE4/HARBS, ratio (IC50 PDE4)/(Ki for HARBS) [8] | Ki [9] | dispersal of PDE4A1 spots (in words) [2] | formation of spots, compound alone (in words) [3] | other results |
| --- | --- | --- | --- | --- | --- | --- | --- | --- | --- | --- | --- | --- | --- | --- | --- |
| CCCCn1c(=O)c2c(ncn2CC(C)=O)n(CCCC)c1=O [Denbufylline] | no | yes | yes | indistinguishable from those induced by Rolipram treatment | no | anti- | yes | 0.2 µM | 6.00 | yes | 49 | 0.0041 µM |  |  | cells with spots [3]: 40%; cells with spots ([3]; listed as denbufylline): approximately 40% |
| COc1ccc(C(=O)Nc2c(Cl)cncc2Cl)cc1OC1CCCC1 [RP73401] | yes | no | no | induces no redistribution | yes | anti- | no | 0.0012 µM |  | yes |  | 0.0004 µM | does not disperse spots; also recorded: no significant spot dispersal | produces no spots | time for dispersal of spots ([1]; spots formed by 2 μM Rolipram over 16 hours, 1 μM RP73401): ≤ 10 min; prevention of the redistribution caused by Rolipram ([4]; in presence of Rolipram): prevent the redistribution; pIC50 [10]: 9.52; cells with spots ([11]; 2 μM Rolipram plus 0.001 μM RP73401, 7.5 hours): less than 5%; spot formation (in words) ([11]; 2 μM Rolipram plus 0.003 μM RP73401, 7.5 hours): unable to elicit the production of any spots; also recorded: no spots formed in any of the cells |
| C[C@H](CCC(=O)O)C[C@H](C)C[C@H](C)C(=O)/C=C(\O)[C@H](C)C[C@H](C)C/C=C/[C@@H](C)[C@@H](O)[C@@H](C)[C@@H](O)C[C@@H]1CC[C@@](C)([C@H]2CC[C@@](C)([C@@H](C)O)O2)O1 [ionomycin] |  |  |  |  |  |  |  |  |  |  |  |  |  |  | cells with bright spots remaining ([1]; 2 μM ionomycin 50-55 minutes with 2 μM Rolipram, non-clonal, 10% FBS (control 70%)): 20-40% and 20 to 40%; dispersal of Rolipram-induced spots (in words) ([1]; FBS-replete cells, 200 nM PMA, 2 μM ionomycin, or 50 μM forskolin plus 1 mM IBMX): slowly and in an incomplete manner; time to formation of small spots in the cytoplasm [12]: ≤ 1 min |
| O=S(=O)(NCCNC/C=C/c1ccc(Br)cc1)c1cccc2cnccc12 [H-89] |  |  |  |  |  |  |  |  |  |  |  |  |  |  | effect on the dispersal of spots induced by IBMX plus forskolin ([1]; FLIPR, 2 micromolar H-89 pre-treatment 20 minutes): significant effect on the dispersal of spots; pIC50 [13]: ~7.30 |
| COc1cc2c(cc1OC)-c1cc(=Nc3c(C)cc(C)cc3C)n(C)c(=O)n1CC2 [Trequinsin, 9,10-dimethoxy-2-mesitylimino-3-methyl-3,4,6,7-tetrahydro-2H-pyrimido[6,1-a]isoquinolin-4-one] |  |  |  | no redistribution |  |  |  | 0.4 µM | 6.00 |  | 023 | 1.7 µM | no significant spot dispersal | Neither compound causes formation of spots | (IC50 PDE3)/(IC50 PDE4) [14]: 0.00041 |
| CN(C(=O)CCCOc1ccc2[nH]c(=O)ccc2c1)C1CCCCC1 [cilostamide] |  |  |  | no redistribution |  |  |  |  |  |  |  |  |  | do not produce spots | pIC50 [15]: 7.15; effect on spot formation by 2 μM Rolipram (in words) ([11]; 500 μM theophylline, 100 μM caffeine, 10 μM milrinone, 0.5 μM cilostamide, 100 μM zaprinast): form the same number and type of bright spots |
